Test results as given in US6121489A (priority 1997, dated 2000).

The compounds below were run against α-glucosidase from bakers yeast (assay: α-Glucosidase inhibition assay, p-nitrophenyl-α-D-glucopyranoside substrate, 96-well format). Conditions: concentration necessary for 50% enzyme inhibition.
Type: biochemical

First: CC(O)C(C(=O)NCc1ccccc1)N(Cc1ccc2ccccc2c1)C(=O)C(N)Cc1cn(Cc2ccc3ccccc3c2)c2ccccc12 (stereo not drawn) [R'-(1-hydroxyethyl)]
Second: NC(Cc1cn(Cc2ccc3ccccc3c2)c2ccccc12)C(=O)N(Cc1ccc2ccccc2c1)C(CO)C(=O)NCc1ccccc1 (stereo not drawn) [S-(1-hydroxymethyl)]
The IC50 of the first is 3.9-fold higher: 678 µM for the first, 176 µM for the second.

CC(O)C(C(=O)NCc1ccccc1)N(Cc1ccc2ccccc2c1)C(=O)C(N)Cc1cn(Cc2ccc3ccccc3c2)c2ccccc12 (stereo not drawn) [R-(1-hydroxyethyl)] and N[C@@H](Cc1cn(Cc2ccc3ccccc3c2)c2ccccc12)C(=O)N(Cc1ccc2ccccc2c1)[C@@H](CCC(=O)O)C(=O)NCc1ccccc1 [S-(2-carboxyethyl)] cannot be ordered by IC50: > 1000 µM for the first, > 1000 µM for the second.

Compared with CCN(C(=O)[C@@H](N)Cc1ccccc1)[C@H](Cc1ccc(O)cc1)C(=O)NCc1ccc2ccccc2c1 [R-(4-hydroxybenzyl)], CCN(C(=O)[C@@H](N)Cc1ccccc1)[C@@H](Cc1ccc2ccccc2c1)C(=O)NCc1ccc2ccccc2c1 [S-(napth-2-ylmethyl)] is higher in IC50: 540 µM for the first, > 1000 µM for the second. The first is the more potent here.

NC(Cc1cn(Cc2ccc3ccccc3c2)c2ccccc12)C(=O)N(Cc1ccc2ccccc2c1)C(Cc1cn(Cc2ccccc2)c2ccccc12)C(=O)NCc1ccccc1 (stereo not drawn) [R-(N'-benzylindol-3-ylmethyl)] and N[C@@H](Cc1cn(Cc2ccc3ccccc3c2)c2ccccc12)C(=O)N(Cc1ccc2ccccc2c1)[C@@H](Cc1cn(Cc2ccccc2)c2ccccc12)C(=O)NCc1ccccc1 [S-(N'-benzylindol-3-ylmethyl)] are within 1.5-fold of each other in IC50: 552 µM for the first, 632 µM for the second.

Going from NC(Cc1cn(Cc2ccc3ccccc3c2)c2ccccc12)C(=O)N(Cc1ccc2ccccc2c1)C(CC1CCCCC1)C(=O)NCc1ccccc1 (stereo not drawn) [R-(cyclohexylmethyl)] to N[C@@H](Cc1cn(Cc2ccc3ccccc3c2)c2ccccc12)C(=O)N(CCC(=O)NCc1ccccc1)Cc1ccc2ccccc2c1 [hydrogen atom, AA = 1], the IC50 falls from > 1000 µM to 770 µM. The second is the more potent here.

Going from N[C@@H](Cc1cn(Cc2ccc3ccccc3c2)c2ccccc12)C(=O)N(Cc1ccc2ccccc2c1)[C@H](Cc1ccc2ccccc2c1)C(=O)NCc1ccccc1 [R-(napth-2-ylmethyl)] to CCN(C(=O)[C@@H](N)Cc1ccccc1)[C@H](C(=O)NCc1ccc2ccccc2c1)c1ccccc1 [S-(phenyl)], the IC50 falls from > 1000 µM to 184 µM. The second is the more potent here.
